# Laboratory results as given in US20220151953A1, “TREATMENT OF INFLAMMATORY SKIN CONDITIONS” (Echo Pharmaceuticals B.V., priority 2019, published 2022).
# Key:
# TNFα = assay: Inhibition of secretion of TNFα by LPS-stimulated U937 cells (ELISA); assay type: cell-based
# Description: (§1) The impact of cannabidiol, extract of Silybum marianum (fruit without pappus) and combinations of these components on the production of cytokines IL-1β and TNFα by a U937 cell line were investigated.
# (§2) U937 cells, were thawed and treated according to the manufacturer's instructions. The cultures were incubated for recovery at 37° C. with 5% CO2 until 70-80% confluency was reached (visual estimation). Then, approx. 0.3×10^6¢/mL (determined by counting) were seeded in 96 well plates containing 200 μL/well of complete growth medium. The cells were incubated at 37° C. with 5% CO2 until 60% confluency was reached (visual estimation, typically—after 48 hr).
# (§3) A proper blank control was subtracted from the measurements.
# (§4) The cells were incubated for 24 hr. at 37° C. with 5% CO2. After the incubation, the conditioned medium of the different treatment groups was collected under standardized conditions and centrifuged at 250×g for 5 min to remove particulates. Clear supernatants were frozen at −70° C. until cytokines analyses. The secretion levels of IL-1β and TNFα (a major inflammatory marker) were quantified by commercial ELISA.
# human sebocytes = conditions: cultured human sebocytes and human skin organ culture; cited from earlier work
# IL-1β = assay: Inhibition of secretion of IL-1β by LPS-stimulated U937 cells (ELISA); assay type: cell-based
# Description: as §1, §2, §3, §4
# prostaglandin E2 (PGE2) = assay: Secretion of PGE2 by LPS-stimulated RAW 264.7 cells; assay type: cell-based; conditions: Mus musculus, RAW264.7, LPS 12.5 ng/ml, each component present at 2.5 μg/ml
# Description: The impact of cannabidiol, extract of Silybum marianum (fruit without pappus) and extract of Centella asiatica (leaf) on the secretion of prostaglandin E2 (PGE2) was investigated.
# RAW 264.7 cells (approx. 2.5×10^5¢/ml, by counting) were seeded in 96 well plates containing 170 μl/well of complete growth medium. The cells were incubated at 37° C. with 5% CO2 for 24 hr. Then, the medium was aspirated and replaced by LPS-containing medium (12.5 ng/ml) without or with the test components. In addition, naïve cells, vehicle-treated cells, Stimulated Control, and Stimulated Vehicle Control served as negative controls. Dexamethasone served as a positive control for anti-inflammatory assay. A Blank control group was included in the assay.
# The spent media from all test groups were collected under standardized conditions and centrifuged at 250 g for 5 min to remove particulates. Clear supernatants were frozen at −70° C. until analysis. The secretion levels of PGE2 (an important inflammatory marker) were determined.
# [1] = Homo sapiens, U-937, 1 μg/mL lipopolysaccharides, 24 hr, each component present at 10 μg/ml
# [2] = LPS-stimulated, summary of Table 2
smiles,measurement,setting,value
"C=C(C)[C@@H]1CCC(C)=C[C@H]1c1c(O)cc(CCCCC)cc1O [Sample 1, Cannabidiol]",inhibition at 10 µg/mL,TNFα; [1],48%
same,effect on secretion of TNFα (in words),TNFα; [2],attenuates secretion
same,"effect on lipogenic actions of arachidonic acid, linoleic acid and testosterone",human sebocytes,inhibited the lipogenic actions of various compounds
same,effect on sebocyte proliferation,human sebocytes,suppressed sebocyte proliferation
same,inhibition at 10 µg/mL,IL-1β; [1],28.4%
same,effect on secretion of IL-1β (in words),IL-1β; [2],attenuates secretion
same,inhibition at 2.5 µg/mL,prostaglandin E2 (PGE2),24%
